Reference: PubChem BioAssay AID264 (DTP/NCI, 2004)
Where “and” joins values, the source holds several entries; their conditions need not be identical. Equal entries are not always repeated. Results filed as inconclusive are left out.

Tested on: nude mice, LX-1 lung xenograft intrarenal, tumor weight T/C
Assay: NCI In Vivo Anticancer Drug Screen. Data for tumor model Human Lung LX-1 Xenograft (intrarenal inoculation) in NU/NU Swiss (nude) mice
Details: endpoint: mean tumor weight change, higher = larger tumour
Description: The antitumor activity of compounds was measured in mice bearing transplantable tumors. Survival or tumor size were measured and the results are expressed as the measurement made in the treated group (T) divided by the measurement made in the vehicle treated control group (C). The tumor model used in this assay is Human Lung LX-1 Xenograft (intrarenal inoculation) in NU/NU Swiss (nude) mice

[1] = dose: 300.0 mg/kg/injection, schedule: Q04DX003 (sc), vehicle: Klucel (hydroxypropylcellulose) (HPC)
[2] = dose: 600.0 mg/kg/injection, schedule: Q04DX003 (sc), vehicle: Klucel (hydroxypropylcellulose) (HPC)
[3] = dose: 1200.0 mg/kg/injection, schedule: Q04DX003 (sc), vehicle: Klucel (hydroxypropylcellulose) (HPC)
[4] = dose: 150.0 mg/kg/injection, schedule: Q04DX003 (sc), vehicle: saline

For CN(C)N=Nc1ccccc1, the T/C (dose: 12.5 mg/kg/injection, schedule: Q01DX010 (sc), vehicle: Klucel (hydroxypropylcellulose) (HPC)) was 12 % of control and the T/C (dose: 50.0 mg/kg/injection, schedule: Q01DX010 (sc), vehicle: Klucel (hydroxypropylcellulose) (HPC)) was -98 % of control.

For COc1cccc2c1C(=O)c1c(O)c3c(c(O)c1C2=O)C[C@@](O)(C(=O)CO)C[C@@H]3OC1CC(N)C(O)C(C)O1 (stereo not given in full), the T/C (dose: 4.0 mg/kg/injection, schedule: Q04DX003 (sc), vehicle: water) was 45 % of control and 53 % of control, the T/C (dose: 4.5 mg/kg/injection, schedule: Q04DX003 (sc), vehicle: saline) was 72 % of control and the T/C (dose: 9.0 mg/kg/injection, schedule: Q04DX003 (sc), vehicle: saline) was 44 % of control.

With O=C1OC(C(O)CO)C(O)=C1O (stereo not given) the T/C (dose: 400.0 mg/kg/injection, schedule: Q01DX010 (sc), vehicle: saline) was 205 % of control, the T/C (dose: 800.0 mg/kg/injection, schedule: Q01DX010 (sc), vehicle: saline) was 110 % of control and the T/C (dose: 1600.0 mg/kg/injection, schedule: Q01DX010 (sc), vehicle: saline) was 153 % of control.

For Nc1nc(=O)n(C2OC(CO)C(O)C2O)cc1F (stereo not given), the T/C (dose: 150.0 mg/kg/injection, schedule: Q04DX003 (sc), vehicle: Klucel (hydroxypropylcellulose) (HPC)) was 74 % of control, the T/C [1] was 68 % of control and the T/C [2] was 84 % of control. The T/C [3] was 48 % of control.

CCCCCC(=O)O[C@]1(C(C)=O)CC[C@H]2[C@@H]3CCC4=CC(=O)CC[C@]4(C)[C@H]3CC[C@@]21C was tested, and the T/C [1] was 91 % of control, the T/C [2] was 112 % of control and the T/C [3] was 103 % of control. The T/C (dose: 2400.0 mg/kg/injection, schedule: Q04DX003 (sc), vehicle: Klucel (hydroxypropylcellulose) (HPC)) was 84 % of control.

With Oc1ccc(CCl)c2cccnc12 the T/C (dose: 75.0 mg/kg/injection, schedule: Q04DX003 (sc), vehicle: saline) was 91 % of control, the T/C [4] was 78 % of control and the T/C (dose: 300.0 mg/kg/injection, schedule: Q04DX003 (sc), vehicle: saline) was 46 % of control.

In the case of CC1=C(O)C(=O)[C@@H]2O[C@@H]2C1=O, the T/C (dose: 1.25 mg/kg/injection, schedule: Q04DX003 (sc), vehicle: saline) was 103 % of control, the T/C (dose: 2.5 mg/kg/injection, schedule: Q04DX003 (sc), vehicle: saline) was 106 % of control and the T/C (dose: 5.0 mg/kg/injection, schedule: Q04DX003 (sc), vehicle: saline) was 160 % of control. For the same compound, the T/C (dose: 10.0 mg/kg/injection, schedule: Q04DX003 (sc), vehicle: saline) was 114 % of control.

For c1csc(C[N+]23CN4CN(CN(C4)C2)C3)c1, the T/C (dose: 100.0 mg/kg/injection, schedule: Q04DX003 (sc), vehicle: saline) was 112 % of control, the T/C (dose: 200.0 mg/kg/injection, schedule: Q04DX003 (sc), vehicle: saline) was 100 % of control and the T/C (dose: 400.0 mg/kg/injection, schedule: Q04DX003 (sc), vehicle: saline) was 92 % of control.

With CCC[CH2][Sn]1([CH2]CCC)[O]C2C(CO)OC(n3ccc(N)nc3=O)C2[O]1 (stereo not given) the T/C (dose: 12.0 mg/kg/injection, schedule: Q04DX003 (sc), vehicle: Klucel (hydroxypropylcellulose) (HPC)) was 82 % of control, the T/C (dose: 24.0 mg/kg/injection, schedule: Q04DX003 (sc), vehicle: Klucel (hydroxypropylcellulose) (HPC)) was 66 % of control and the T/C (dose: 48.0 mg/kg/injection, schedule: Q04DX003 (sc), vehicle: Klucel (hydroxypropylcellulose) (HPC)) was 115 % of control.

For CN=S(=O)(OCCCCCOS(=O)(=NC)c1ccccc1)c1ccccc1 (stereo not given), the T/C (dose: 200.0 mg/kg/injection, schedule: Q04DX003 (sc), vehicle: saline with Tween-80) was 36 % of control, the T/C (dose: 400.0 mg/kg/injection, schedule: Q04DX003 (sc), vehicle: saline with Tween-80) was 77 % of control and the T/C (dose: 800.0 mg/kg/injection, schedule: Q04DX003 (sc), vehicle: saline with Tween-80) was 57 % of control.

In the case of COC(=O)c1ccoc1, the T/C [4] was 107 % of control.

For O=C(O)CSc1nc(-c2ccccc2)c(-c2ccccc2)n1-c1ccccn1, the T/C (dose: 50.0 mg/kg/injection, schedule: Q01DX010 (sc), vehicle: water) was 94 % of control and the T/C (dose: 100.0 mg/kg/injection, schedule: Q01DX010 (sc), vehicle: water) was 60 % of control.

With COc1cccc2c1C(=N)c1c(O)c3c(c(O)c1C2=O)C[C@@](O)(C(C)=O)C[C@@H]3OC1CC(N)C(O)C(C)O1 (stereo not given in full) the T/C (dose: 24.0 mg/kg/injection, schedule: Q04DX003 (sc), vehicle: water) was 46 % of control, the T/C (dose: 48.0 mg/kg/injection, schedule: Q04DX003 (sc), vehicle: water) was 10 % of control and the T/C (dose: 96.0 mg/kg/injection, schedule: Q04DX003 (sc), vehicle: water) was 23 % of control.

With Cc1c2cc(Cl)c3ccccc3c2c[n+]2ccccc12 the T/C (dose: 300.0 mg/kg/injection, schedule: Q04DX003 (sc), vehicle: saline with Tween-80) was 66 % of control, the T/C (dose: 600.0 mg/kg/injection, schedule: Q04DX003 (sc), vehicle: saline with Tween-80) was 81 % of control and the T/C (dose: 1200.0 mg/kg/injection, schedule: Q04DX003 (sc), vehicle: saline with Tween-80) was 70 % of control.

For CCCCn1cnc2c(=S)nc[nH]c21, the T/C (dose: 300.0 mg/kg/injection, schedule: Q04DX003 (sc), vehicle: suspension in saline) was 69 % of control, the T/C (dose: 600.0 mg/kg/injection, schedule: Q04DX003 (sc), vehicle: suspension in saline) was 53 % of control and the T/C (dose: 1200.0 mg/kg/injection, schedule: Q04DX003 (sc), vehicle: suspension in saline) was 61 % of control. The T/C (dose: 2400.0 mg/kg/injection, schedule: Q04DX003 (sc), vehicle: suspension in saline) was 57 % of control.
